Data set [1] has as its system human neonatal foreskin fibroblast (NFF). Nature of the data set: Cytotoxicity screen at 5 μg/mL, resazurin dye assay, 96 h. On the technique in general: Resazurin is reduced to fluorescent resorufin, in cell work by metabolically active cells.
Data set [2] deals with P. falciparum 3D7 parasites. As to the kind of experiment: P. falciparum growth inhibition assay, 1-cycle (72 h treatment), SYBR DNA staining (library screen at 2 μg/mL and dose-response). Conditions: for Screen (P. falciparum): 3D7, 72 h, DD from the 120 h timepoint. In kind it is cell-based, Plasmodium falciparum.
Data set [3] has as its system T. gondii RH strain (RH-Tub-eYFP) tachyzoites. Nature of the data set: microbe, parasite or virus in culture. In kind it is cell-based, Toxoplasma gondii. As to conditions: 72 h; for activity in the screen against T. gondii: 2 μg/mL, active = ≥80 % growth inhibition; for percent parasite growth at 2 µg/mL / IC50: Toxoplasma gondii; for percent parasite growth at 2 µg/mL: T. gondii; for IC50: mean ± S.D., n ≥ 3, read-out: IC50 (μM), T. gondii (converted).

Data set [4] deals with HFF cells.
The subject of data set [5] is P. falciparum 3D7 parasites. As to the kind of experiment: P. falciparum growth inhibition assay, 2-cycle (120 h treatment), delayed-death screen and dose-response. In kind it is cell-based, Plasmodium falciparum. As to conditions: for IC50: 3D7, read-out: IC50, P. falciparum, 120 h dose-response (delayed-death).
The test system of data set [6] is Leishmania. As to conditions: ref Filho et al., 2024; cited from earlier work.
[7] abbreviates: Plasmodium falciparum, 3D7, 72 h treatment, mean ± S.D., n ≥ 3, read-out: IC50 (μM), P. falciparum.

By IC50 is commonly meant the concentration that gives 50% inhibition.

Where two headings read alike, the source gives them in different places.

`CC(/C=C/C[C@@H](C)/C=C(C)/C=C/[C@@H]1OC(=O)C=C[C@@H]1C)=C\[C@@H](C)C(=O)[C@@H](C)[C@H](O)[C@@H](C)C/C(C)=C/C(=O)O` [leptomycin A]: the “cytotoxic activity in the screen against fibroblasts” value in data set [1] was “cytotoxic activity”.

As to `C=C[C@]1(C)C[C@@H](OC(=O)CSC(C)(C)CNC(=O)[C@H](N)C(C)C)[C@]2(C)[C@H](C)CC[C@]3(CCC(=O)[C@H]32)[C@@H](C)[C@@H]1O` [Valnemulin, reference compound], the activity at 2 µg/mL was determined as 50.1% in data set [2] (Plasmodium falciparum, 3D7; P. falciparum, 2 μg/mL, 72 h; read-out: 1) Growth (%) at 72 h); 44.3% in data set [2] (Plasmodium falciparum, 3D7, P. falciparum, 72 h, screen at 2 μg/mL, replicate 1, read-out: Pf_72h_%Growth_Rep1); 55.9% in data set [2] (Plasmodium falciparum, 3D7, P. falciparum, 72 h, screen at 2 μg/mL, replicate 2, read-out: Pf_72h_%Growth_Rep2); 13.4% in data set [5] (Plasmodium falciparum, 3D7; P. falciparum, 2 μg/mL, 120 h; read-out: 2) Growth (%) at 120 h); 15% in data set [5] (Plasmodium falciparum, 3D7, P. falciparum, 120 h, screen at 2 μg/mL, replicate 1, read-out: Pf_120h_%Growth_Rep1); 11.8% in data set [5] (Plasmodium falciparum, 3D7, P. falciparum, 120 h, screen at 2 μg/mL, replicate 2, read-out: Pf_120h_%Growth_Rep2). Also, the IC50 in data set [2] (setting [7]) is over 1 µM; in data set [3] (RH strain), 0.232 µM; in data set [5] (Plasmodium falciparum) it was 64 nM. In addition, the “Screen (P. falciparum)” value in data set [2] (library screen at 2 μg/mL) is “DD^”. For the same compound, in data set [3], the “activity in the screen against T. gondii” value is given as “active against T. gondii”. Also, the percent parasite growth at 2 µg/mL was found to be 13.1% in data set [3] (screen at 2 μg/mL, replicate 1, read-out: Tg_72h_%Growth_Rep1) and 19.6% in data set [3] (screen at 2 μg/mL, replicate 2, read-out: Tg_72h_%Growth_Rep2). In addition, in data set [4] (fibroblasts over T. gondii, for cryptopleurine the parasite is not stated), the selectivity index entry is reported as “greater than 100”. Besides, the “delayed-death activity in the 120 h screen against P. falciparum” value in data set [5] (2 μg/mL, criteria: ≥40 % growth at 72 h, ≤20 % growth at 120 h, at least 5-fold) is “meeting two of our three criteria for delayed-death activity”. Further, in data set [5] (P. falciparum, growth at 72 h / growth at 120 h, 2 μg/mL), the “3) Fold change (72 h/120 h)” value was determined as 3.7.

Consider Beauvericin, for which the IC50 came out at 0.499 ± 0.029 µM in data set [2] (3D7, 72 h treatment, mean ± S.D., n ≥ 3, read-out: IC50 (μM), P. falciparum) and 0.5 µM in data set [2] (72 h treatment, read-out: IC50, P. falciparum). The compound further had a Pf_72h_%Growth_Rep1 in data set [2] (library screen at 2 μg/mL, 72 h, % growth, replicate 1) of 7.31%. The same compound gave a Pf_72h_%Growth_Rep2 in data set [2] (library screen at 2 μg/mL, 72 h, % growth, replicate 2) of 5.24%. Besides, the Tg_72h_%Growth_Rep1 in data set [3] (library screen at 2 μg/mL, % growth, replicate 1) amounted to 86.72%. In data set [3] (library screen at 2 μg/mL, % growth, replicate 2), the Tg_72h_%Growth_Rep2 came to 89.12%. Besides, the “reported activity in Leishmania” value in data set [6] was “around 1 μM”. In data set [5] (library screen at 2 μg/mL, 120 h, % growth, replicate 1), this compound registered a Pf_120h_%Growth_Rep1 of 4.73%. This compound returned a Pf_120h_%Growth_Rep2 in data set [5] (library screen at 2 μg/mL, 120 h, % growth, replicate 2) of 5.37%.

For `C=C[C@]1(C)C[C@@H](OC(=O)CS[C@@H]2C[C@H]3CC[C@@H](C2)N3C)[C@]2(C)[C@H](C)CC[C@]3(CCC(=O)[C@H]32)[C@@H](C)[C@@H]1O` [Retapamulin, reference compound], the “activity in the screen against P. falciparum” value in data set [2] (2 μg/mL, 72 h, active = ≥80 % growth inhibition) was “active against both P. falciparum and T. gondii”. Also, the activity at 2 µg/mL in data set [2] (Plasmodium falciparum, 3D7, P. falciparum, 72 h, parasite screen 2 μg/mL, % growth, replicate 1, read-out: Pf_72h_%Growth_Rep1) was 8.14%; in data set [2] (Plasmodium falciparum, 3D7, P. falciparum, 72 h, parasite screen 2 μg/mL, % growth, replicate 2, read-out: Pf_72h_%Growth_Rep2), 8.89%; in data set [5] (Plasmodium falciparum, 3D7, P. falciparum, 120 h, parasite screen 2 μg/mL, % growth, replicate 1, read-out: Pf_120h_%Growth_Rep1), -0.64%; in data set [5] (Plasmodium falciparum, 3D7, P. falciparum, 120 h, parasite screen 2 μg/mL, % growth, replicate 2, read-out: Pf_120h_%Growth_Rep2), 3.58%. The IC50 in data set [2] (setting [7]) is over 1 µM; in data set [3] (RH strain), 0.085 µM; in data set [5] (Plasmodium falciparum) it was 106 nM. In data set [2] (library screen at 2 μg/mL), the “Screen (P. falciparum)” value is given as “A, A”. Moreover, the “activity in the screen against T. gondii” value in data set [3] is “active against both P. falciparum and T. gondii”. The percent parasite growth at 2 µg/mL in data set [3] (parasite screen 2 μg/mL, % growth, replicate 1, read-out: Tg_72h_%Growth_Rep1) was 2.49%; in data set [3] (parasite screen 2 μg/mL, % growth, replicate 2, read-out: Tg_72h_%Growth_Rep2), 9.45%. In addition, in data set [3] (library screen at 2 μg/mL, RH strain), the “Screen (T. gondii)” value is recorded as “A, A”. For the same compound, in data set [4], the selectivity index entry was “greater than 100”.

Source of the values: PMC12396409, “Screening and hit evaluation of a microbial metabolite library against the pathogenic Plasmodium falciparum and Toxoplasma gondii parasites” (International Journal for Parasitology: Drugs and Drug …, 2025).
